Assay results reported in ChEMBL document CHEMBL1130076, “Synthesis and in vitro evaluation of two progressive series of bifunctional polyhydroxybenzamide catechol-O-methyltransferase inhibitors” (J Med Chem, 1997).

Key:
[1] = target: T1, Catechol O-methyltransferase (Sus scrofa, UniProt Q99028); test: In vitro inhibitory activity against Catechol-O-methyltransferase from porcine liver; Competitive mode of inhibition
T1 sequence (Q99028 whole entry): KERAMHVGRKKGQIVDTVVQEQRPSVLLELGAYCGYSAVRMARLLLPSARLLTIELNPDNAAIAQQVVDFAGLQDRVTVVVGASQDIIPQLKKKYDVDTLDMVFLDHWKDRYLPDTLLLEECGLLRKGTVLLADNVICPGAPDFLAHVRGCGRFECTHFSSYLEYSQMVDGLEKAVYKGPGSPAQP

[2] = target: T1, Catechol O-methyltransferase; test: In vitro inhibitory activity against Catechol-O-methyltransferase from porcine liver; Uncompetitive mode of inhibition
[3] = compound: CCCNC(=O)c1ccc(O)c(O)c1; test: (§1) In vitro inhibitory activity against Catechol-O-methyltransferase from porcine liver; No inhibitory action; details: Sus scrofa
[4] = compound: O=C(NCCCCCCNC(=O)c1ccc(O)c(O)c1)c1ccc(O)c(O)c1; test: as §1; details: Sus scrofa
[5] = compound: O=C(NCCCCCNC(=O)c1ccc(O)c(O)c1)c1ccc(O)c(O)c1; test: as §1; details: Sus scrofa
[6] = compound: O=C(NCCNC(=O)c1ccc(O)c(O)c1)c1ccc(O)c(O)c1; test: as §1; details: Sus scrofa
[7] = compound: COC(=O)c1cc(O)c(O)c(O)c1; test: (§2) In vitro inhibitory activity against Catechol-O-methyltransferase from porcine liver; details: Sus scrofa
[8] = compound: C[S+](CC[C@H](N)C(=O)[O-])C[C@H]1O[C@@H](n2cnc3c(N)ncnc32)[C@H](O)[C@@H]1O; test: as §2; details: Sus scrofa

O=C(NCCCNC(=O)c1ccc(O)c(O)c1)c1ccc(O)c(O)c1
Ki [1]: 0.3 µM

O=C(NCCCCCCNC(=O)c1cc(O)c(O)c(O)c1)c1cc(O)c(O)c(O)c1
Ki [2]: 35 µM

O=C(NCCCCCNC(=O)c1cc(O)c(O)c(O)c1)c1cc(O)c(O)c(O)c1
Ki [2]: 26.7 µM

O=C(NCCNC(=O)c1cc(O)c(O)c(O)c1)c1cc(O)c(O)c(O)c1
Ki [2]: 136 µM

CCCNC(=O)c1cc(O)c(O)c(O)c1
Ki [1]: 0.5 µM

O=C(NCCCNC(=O)c1cc(O)c(O)c(O)c1)c1cc(O)c(O)c(O)c1
Ki [2]: 6.6 µM

B1: Catechol O-methyltransferase (Sus scrofa), Q99028 (protein)
chain: T1 sequence (Q99028 whole entry)
COMT inhibitory activity [3]: No inhibitory action | COMT inhibitory activity [4]: No inhibitory action | COMT inhibitory activity [5]: No inhibitory action | COMT inhibitory activity [6]: No inhibitory action | Km [7]: 25.5 µM | Km [8]: 44.6 µM
